Source: the supplement of paper PMC10307832

Columns and labels:
Assay in all cases: relative viability (nuclei count vs DMSO), 5 days (fraction); higher = more cells survive
TPCA-1 + Olaparib = compound: C1=CC(=CC=C1C2=CC(=C(S2)NC(=O)N)C(=O)N)F [TPCA-1] + O=C(c1cc(Cc2n[nH]c(=O)c3ccccc23)ccc1F)N1CCN(C(=O)C2CC2)CC1 [Olaparib] (partner 8 µM)
Summary of the method: (§1)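 Relative viability was taken as the ratio of nuclei in treated wells to nuclei in vehicle wells. Lung cancer cell lines in 1536-well plates received compounds by pin tool one day after seeding, either one drug alone or a fixed anchor-drug dose plus five library-drug doses (not always all listed) in √10 steps. Nuclei were counted on 4× images after 5 days of treatment, and values are medians of duplicate plates.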

TPCA-1 + Lapatinib = compound: C1=CC(=CC=C1C2=CC(=C(S2)NC(=O)N)C(=O)N)F [TPCA-1] + CS(=O)(=O)CCNCc1ccc(-c2ccc3ncnc(Nc4ccc(OCc5cccc(F)c5)c(Cl)c4)c3c2)o1 [Lapatinib] (partner 2 µM)
Summary of the method: as §1

[1] = compound: C1/C(=C\C2=CC=CS2)/C(=O)/C(=C/C3=CC=CS3)/C1 + CS(=O)(=O)N1CCN(Cc2cc3nc(-c4cccc5[nH]ncc45)nc(N4CCOCC4)c3s2)CC1 [Pictilisib] (partner 1 µM)
Summary of the method: as §1

[2] = compound: C1/C(=C\C2=CC=CS2)/C(=O)/C(=C/C3=CC=CS3)/C1 + CC(=O)c1c(C)c2cnc(Nc3ccc(N4CCNCC4)cn3)nc2n(C2CCCC2)c1=O [Palbociclib] (partner 0.5 µM)
Summary of the method: as §1

Row | Cell Line | relative viability (TPCA-1 + Olaparib; first compound 0.04 µM) | relative viability (TPCA-1 + Olaparib; first compound 0.1265 µM) | relative viability (TPCA-1 + Olaparib; first compound 0.4 µM) | relative viability (TPCA-1 + Olaparib; first compound 1.265 µM) | relative viability (TPCA-1 + Olaparib; first compound 4 µM) | relative viability (TPCA-1 + Lapatinib; first compound 0.04 µM) | relative viability (TPCA-1 + Lapatinib; first compound 0.1265 µM) | relative viability (TPCA-1 + Lapatinib; first compound 0.4 µM) | relative viability (TPCA-1 + Lapatinib; first compound 1.265 µM) | relative viability (TPCA-1 + Lapatinib; first compound 4 µM) | relative viability ([1]; first compound 0.2 µM) | relative viability ([1]; first compound 0.6325 µM) | relative viability ([1]; first compound 2 µM) | relative viability ([1]; first compound 6.325 µM) | relative viability ([1]; first compound 20 µM) | relative viability ([2]; first compound 0.2 µM) | relative viability ([2]; first compound 0.6325 µM) | relative viability ([2]; first compound 2 µM) | relative viability ([2]; first compound 6.325 µM) | relative viability ([2]; first compound 20 µM)
1 | HCC-44 | 0.983 | 0.938 | 0.95 | 0.908 | 0.937 | 0.974 | 0.961 | 1 | 0.913 | 0.904 | 0.624 | 0.605 | 0.693 | 0.591 | 0.79 | 0.984 | 1 | 0.926 | 0.862 | 1.04
2 | COR-L23 | 0.393 | 0.329 | 0.286 | 0.303 | 0.325 | 1.09 | 0.859 | 0.903 | 1.09 | 0.678 | 0.765 | 0.827 | 0.922 | 0.674 | 0.892 | 0.333 | 0.283 | 0.338 | 0.294 | 0.297
3 | EMC-BAC-2 | 0.486 | 0.461 | 0.572 | 0.355 | 0.245 | 0.993 | 0.854 | 0.895 | 0.752 | 0.756 | 0.61 | 0.548 | 0.545 | 0.48 | 0.505 | 0.548 | 0.549 | 0.526 | 0.472 | 0.518
4 | LK-2 | 0.68 | 0.371 | 0.516 | 0.741 | 0.335 | 1.11 | 0.636 | 0.879 | 0.874 | 0.419 | 0.521 | 0.635 | 0.487 | 0.491 | 0.561 | 0.639 |  | 0.706 | 0.787 | 0.732
5 | SW 1573 | 0.539 | 0.414 | 0.481 | 0.476 | 0.48 | 0.829 | 1.04 | 1.17 | 1.18 | 1.19 | 0.54 | 0.523 | 0.551 | 0.377 | 0.512 | 0.444 | 0.459 | 0.516 | 0.366 | 0.347
6 | NCI-H2405 | 0.908 | 0.833 | 0.951 | 0.717 | 0.691 | 1.19 | 0.915 | 1.1 |  | 0.949 | 0.491 | 0.386 | 0.572 | 0.452 | 0.416 | 0.555 | 0.509 | 0.575 | 0.52 | 0.504
7 | NCI-H2087 | 0.711 | 0.588 | 0.541 | 0.546 | 0.364 | 1.08 | 0.914 | 0.905 | 0.798 | 0.247 | 0.78 | 0.959 | 0.986 | 0.552 | 0.822 | 0.272 | 0.215 | 0.271 | 0.168 | 0.303
8 | NCI-H460 | 0.475 | 0.465 | 0.463 | 0.392 | 0.278 | 1.26 | 0.982 | 1.12 | 0.9 | 0.335 | 0.365 | 0.279 | 0.453 | 0.303 | 0.346 | 0.201 | 0.174 | 0.224 | 0.244 | 0.146
9 | LOU-NH91 | 0.885 | 0.846 | 0.922 | 0.94 | 0.773 | 0.796 | 0.717 | 0.753 | 0.779 | 0.596 | 0.522 | 0.502 | 0.508 | 0.524 | 0.481 | 0.564 | 0.584 | 0.523 | 0.507 | 0.55
10 | NCI-H1651 | 0.192 | 0.177 | 0.185 | 0.171 | 0.134 | 1.02 | 0.746 | 0.951 | 0.848 | 0.8 | 0.527 | 0.596 | 0.646 |  | 0.516 | 0.48 | 0.554 | 0.563 | 0.47 | 0.527
